SMILES strings stand for the structures.

For data set [1] the following is noted: FDA SBA; cited from earlier work.
For data set [2] the following is noted: in vivo; cited from earlier work.
For data set [3] the following is noted: FDA SBA; cited from earlier work. This is another data set of the same source.
A short description of data set [4]: apparent water solubility at room temperature. The data set is classed as physicochemical.
The conditions of data set [5]: cited from earlier work.

Turning to `O=P(O)(O)C(O)(Cn1ccnc1)P(=O)(O)O` [Zoledronic acid, (1-hydroxy-2-imidazol-1-yl-1-phosphono-ethyl)phosphonic acid], in data set [1], the oral bioavailability result was “approximately 1%”. Further, in data set [2], the “gastric and intestinal irritations” value is “severe gastric and intestinal irritations”. Further, the “permeability in the GI tract” value in data set [3] was “poor permeability”. Moreover, in data set [4], the apparent water solubility result is given as “few”. Moreover, in data set [5] (0.1 N HCl), the “solubility in 0.1 N HCl solution” value is recorded as “sparingly soluble”. The “solubility in 0.1 N NaOH” value in data set [5] (0.1 N NaOH) is on record as “freely soluble”. Besides, the “solubility in various organic solvents” value in data set [5] (various organic solvents) is recorded as “practically insoluble”. Also, the solubility in water entry in data set [5] (water) is reported as “sparingly soluble”.

The values above are taken from patent US10526358B2, “Crystalline forms” (GRUNENTHAL GMBH, priority 2016, dated 2020).
